According to PMC2959035, “Comparative biochemical analysis of recombinant reverse transcriptase enzymes of HIV-1 subtype B and subtype C” (Retrovirology, 2010):
Where two headings read alike, the source gives them in different places.

Key:
Experiment in all cases: RNA-dependent DNA polymerase assay, [3H]-dTTP incorporation
Type in all cases: biochemical
[1] = target: T1, B RT-1 (HIV-1 subtype B RT, NL4-3) (Human immunodeficiency virus type 1 (NEW YORK-5 ISOLATE), UniProt P12497)
T1 construct: gene gag-pol; p66/p51 heterodimer cut from the Pol (Gag-Pol) polyprotein; plasmid pbRT6H-PROT with co-expressed HIV-1 protease; 6-His tag; E. coli M15; Ni-NTA, DEAE- and SP-Sepharose; with p51 RT of Gag-Pol polyprotein
Excerpt: RNA-dependent DNA polymerase assay, [3H]-dTTP incorporation on B RT-1 (HIV-1 subtype B RT, NL4-3)

[2] = target: T2, C RT-2 (HIV-1 subtype C RT, isolate M01) (HIV-1 M:C_92BR025, UniProt O12158); details: HIV-1 PBS RNA/dPR template/primer 30 nM, dNTPs 5 μM each, 6 mM MgCl2, 60 mM KCl, pH 7.8, 37°C, 30 min, read-out: IC50 (μM)^a / C RT-2 ^e
T2 construct: gene gag-pol; p66/p51 heterodimer cut from the Pol (Gag-Pol) polyprotein; His-tagged, E. coli; with p51 RT of Gag-Pol polyprotein
Excerpt: RNA-dependent DNA polymerase assay, [3H]-dTTP incorporation on C RT-2 (HIV-1 subtype C RT, isolate M01)

[3] = target: T3, B RT-2 (HIV-1 subtype B RT, HXB2) (HIV-1 M:B_HXB2R, UniProt P04585)
T3 construct: gene gag-pol; p66/p51 heterodimer cut from the Pol (Gag-Pol) polyprotein; plasmid pRT6H-PROT with co-expressed HIV-1 protease; 6-His tag; E. coli M15; Ni-NTA, DEAE- and SP-Sepharose; with p51 RT of Gag-Pol polyprotein
Excerpt: RNA-dependent DNA polymerase assay, [3H]-dTTP incorporation on B RT-2 (HIV-1 subtype B RT, HXB2)

[4] = nucleotide analogue, competitive at active site
[5] = NNRTI, non-competitive allosteric
[6] = read-out: IC50 (μM)^a / B RT-1^b
[7] = read-out: IC50 (μM)^a / B RT-2^c

Row | SMILES | IC50 [2, 4] | IC50 [2, 5] | IC50 [1, 6] | IC50 [3, 7] | further results
1 | Nc1ccn([C@@H]2CS[C@H](COP(=O)(O)OP(=O)(O)OP(=O)(O)O)O2)c(=O)n1 [3TC-TP] | 4.1 ± 0.4 µM |  |  |  | IC50 [1]: 2.7 ± 0.3 µM
2 | O=C1Nc2ccc(Cl)cc2[C@@](C#CC2CC2)(C(F)(F)F)O1 [EFV] |  | 0.18 ± 0.02 µM |  |  | 
3 | Cc1cc(C#N)cc(C)c1Oc1nc(Nc2ccc(C#N)cc2)nc(N)c1Br [ETR] |  | 0.19 ± 0.03 µM | 0.17 ± 0.03 µM | 0.16 ± 0.02 µM | 
4 | Cc1ccnc2c1NC(=O)c1cccnc1N2C1CC1 [NVP] |  | 4.3 ± 0.3 µM |  |  | 
5 | C[C@H](Cn1cnc2c(N)ncnc21)OCP(=O)(O)OP(=O)(O)OP(=O)(O)O [TFV-DP] | 2.9 ± 0.4 µM |  | 2.5 ± 0.3 µM | 2.1 ± 0.3 µM | 
6 | Cc1cn([C@H]2C[C@H](N=[N+]=[N-])[C@@H](CO[P@](=O)(O)O[P@](=O)(O)OP(=O)(O)O)O2)c(=O)[nH]c1=O [ZDV-TP] |  |  |  |  | IC50 [3]: 2.9 ± 0.4 µM; IC50 ([2]; 150 μM sodium pyrophosphate included, nucleotide analogue, competitive at active site): 3.8 ± 0.5 µM
